In article PMC10223019, “Preclinical Evaluation of a PSMA-Targeting Homodimer with an Optimized Linker for Imaging of Prostate Cancer” (Molecules, 2023):
Values joined by “and” are separate entries in the source; they are usually repeats but may differ in a detail not shown here. Equal entries are not always repeated.

Experiments:
[1] = design: method as in PMID 33495926; conditions: co-administration of maximum dose of 2000 pmoles PSMA-11; cited from earlier work
[2] = Stability in phosphate-buffered saline (PBS), radio-HPLC; assay type: physicochemical; conditions: 24 h post-incubation, 37 °C, indium-111 labeled, intact fraction
Method: [^111In]In-22 or [^111In]In-30 (~10 MBq, 20 µL) was mixed with 80 μL of PBS (0.01 M, pH 7.4) and incubated at 37 °C for up to 24 h. A sample of the PBS solution was loaded directly onto the radio-HPLC at 1, 4, and 24 h post-incubation.

[3] = tested on: PSMA expressing LS174T cells; test: Internalization and cell uptake assay; assay type: cell-based, human; conditions: 2 h 37 °C
Method: LS174T human colon carcinoma cells transfected with human PSMA were obtained from Dr. Sandra Heskamp (Radboud UMC, Nijmegen). Cells were cultured in RPMI-1640 media supplemented with 2 mM glutamine, 10% fetal bovine serum (FBS) and 0.3 mg/mL G418 (Geneticin, Sigma Aldrich, St. Louis, MO, USA).
Cells were seeded (1.2 × 10^6 cells/well) and cultured to confluency for 24 h prior to experiments. We prepared 10^−9 M solutions of [^111In]In-PSMA-617, [^111In]In-22, and [^111In]In-30 in internalization media (RPMI, 20 mM HEPES, 1% BSA, pH 7.4). The media were removed from each well, and they were rinsed twice with PBS at rt. 2 mL of the radioactive compound was then added to each well and incubated at 37 °C for 2 h. For the internalization assay, the media containing radioactive compound were removed, and each well was washed twice with cold PBS. A total of 1 mL of Glycine buffer (50 mM glycine, 100 mM NaCl, pH 2.8) was added immediately and incubated for 10 min at rt. The glycine wash was then collected into counting tubes (membrane-bound fraction). An extra wash was performed and collected in the same tubes. A total of 1 mL of NaOH (1 M) was then added to each tube and left for 15 min at rt. The lysate (internalized fraction) was then collected in separate counting tubes, together with one extra NaOH wash. Data were normalized to 1,000,000 cells and percentage added dose.

[4] = LogD7.4 by shake-flask method (PBS/n-octanol); assay type: physicochemical; conditions: LogD7.4, PBS pH 7.4/n-octanol, indium-111 labeled compound
Method: The distribution coefficients (LogD7.4 values) were determined by a shake-flask method, in which 2 μL (~0.5 MBq) of the labeling solution ([^111In]In-22 or [^111In]In-30) were added to an Eppendorf tube containing 1 mL of PBS (0.01 M, pH 7.4)/n-octanol (v/v, 1:1). After vigorous vortexing, the solution was centrifuged at 2500× g for 15 min for phase separation. Samples (3 × 10 μL) of the two phases were taken out and measured in a gamma counter. LogD7.4 values were calculated by using the following equation: LogD7.4 = log [(counts in octanol phase)/(counts in aqueous phase)] and the experiment was performed in triplicate.

[5] = Stability in mouse serum, radio-HPLC; assay type: in vitro ADME; conditions: 24 h post-incubation, 37 °C, indium-111 labeled, intact fraction
Method: [^111In]In-22 or [^111In]In-30 (~35 MBq, 70 µL) was mixed with 330 μL of mouse serum and incubated at 37 °C for up to 24 h. After 1, 4, and 24 h incubation, 50 μL of the mouse serum solution was added to a separate vial containing 50 µL of acetonitrile. The sample was centrifuged at 5000× g for 20 min. The supernatant was analyzed by radio-HPLC.

[6] = tested on: BALB/c nude mice bearing LS174T PSMA-positive tumor xenografts; test: Ex vivo biodistribution studies; assay type: in vivo
Method: Animal experiments were performed in 8–10 weeks old male BALB/c nude mice (Janvier Labs, Le Genest-Saint-Isle, France). Animals were housed in individually ventilated cages (Blue line IVC, 4 mice per cage) under nonsterile standard conditions with cage enrichment present and free access to chlorophyll-free animal chow (Sniff GmbH, Soest, Germany) and water and acclimated for 1 week before experiments. Mice were subcutaneously inoculated with 4.0 × 10^6 LS174T cells in the right flank, diluted in 100 μL of cell suspension. Seven days after tumor cell inoculation, when xenografts were approximately 0.2–0.3 cm^3, the tracers were injected intravenously via the tail vein. All experiments were approved by the institutional Animal Welfare Committee and were conducted in accordance with the guidelines of the Revised Dutch Act on Animal Experimentation (WOD).
Mice were intravenously injected with ~1 nmol of either [^111In]In-PSMA-617, [^111In]In-22 or [^111In]In-30 with molar activity of 5 MBq/nmol for ex vivo biodistribution studies. Mice (n = 4/timepoint) were euthanized by cervical dislocation at 1, 4, and 24 h p.i. A block group was included, and mice were euthanized at 4 h p.i. Organs were collected in tubes and counted in the gamma counter, where the calibration factor was determined by measuring different known activities of indium-111.

[7] = 4 h p.i. block group (excess unlabeled PSMA ligand)

O=C(O)CCc1ccc(O)c(CN(CCN(CC(=O)O)Cc2cc(CCC(=O)NCCCCCC(=O)NCCCC[C@H](NC(=O)N[C@@H](CCC(=O)O)C(=O)O)C(=O)O)ccc2O)CC(=O)O)c1 [PSMA-11]
Decrease in kidney uptake of [177Lu]Lu-PSMA [1]: 99.5% | Decrease in salivary gland uptake of [177Lu]Lu-PSMA [1]: 89.5% | Decrease in tumor-uptake of [177Lu]Lu-PSMA [1]: 44.5%

CC(C)CC(NC(=O)C(Cc1ccccc1)NC(=O)C(CC(=O)O)NC(=O)CCCCCSC1=NNC(SCCCCCC(=O)NC(CC(=O)O)C(=O)NC(Cc2ccccc2)C(=O)NC(CC(C)C)C(O)CC(=O)NCCCCCC(=O)NCCCCC(NC(=O)NC(CCC(=O)O)C(=O)O)C(=O)O)=C2CCC(OC(=O)NCCCNC(=O)CN3CCN(CC(=O)[O-])CCN(CC(=O)[O-])CCN(CC(=O)[O-])CC3)CCCC12)C(O)CC(=O)NCCCCCC(=O)NCCCCC(NC(=O)NC(CCC(=O)O)C(=O)O)C(=O)O.[111In+3] (stereo not drawn) [[^111In]In-30]
Stability in PBS (%) [2]: 90.8% | Internalized fraction ([3]; 10^-9 M, NaOH lysate): 3.51 ± 0.68 % AD | Membrane-bound uptake ([3]; 10^-9 M, glycine wash): 0.26 ± 0.09 % AD | Total uptake ([3]; 10^-9 M, normalized to 1,000,000 cells): 3.79 ± 0.74 % AD | Internalized fraction as share of total uptake (internalization) [3]: 92% and 92.6% | Membrane-bound uptake as share of total uptake [3]: 7.4% | logD [4]: −2.44 ± 0.07 | Stability in Mouse Serum (%) [5]: 90.1% | Blood uptake ([6]; 1 h p.i., i.v. ~1 nmol): 4.84 ± 1.44 % ID/g | Bone uptake ([6]; 1 h p.i., i.v. ~1 nmol): 3.00 ± 0.53 % ID/g | Heart uptake ([6]; 1 h p.i., i.v. ~1 nmol): 2.58 ± 0.79 % ID/g | Intestines uptake ([6]; 1 h p.i., i.v. ~1 nmol): 0.87 ± 0.08 % ID/g | Kidney uptake ([6]; 1 h p.i., i.v. ~1 nmol): 138.54 ± 1.44 % ID/g | Liver uptake ([6]; 1 h p.i., i.v. ~1 nmol): 3.94 ± 0.26 % ID/g | Lung uptake ([6]; 1 h p.i., i.v. ~1 nmol): 2.81 ± 0.36 % ID/g | Muscle uptake ([6]; 1 h p.i., i.v. ~1 nmol): 1.13 ± 0.22 % ID/g | Pancreas uptake ([6]; 1 h p.i., i.v. ~1 nmol): 1.47 ± 0.33 % ID/g | Prostate uptake ([6]; 1 h p.i., i.v. ~1 nmol): 3.53 ± 2.05 % ID/g | Skin uptake ([6]; 1 h p.i., i.v. ~1 nmol): 4.44 ± 1.06 % ID/g | Spleen uptake ([6]; 1 h p.i., i.v. ~1 nmol): 3.30 ± 0.59 % ID/g | Stomach uptake ([6]; 1 h p.i., i.v. ~1 nmol): 0.47 ± 0.34 % ID/g | Tumor uptake ([6]; 1 h p.i., i.v. ~1 nmol): 4.95 ± 1.01 % ID/g | Blood uptake [6, 7]: 0.78 ± 0.04 % ID/g | Bone uptake [6, 7]: 1.27 ± 0.23 % ID/g | Heart uptake [6, 7]: 0.82 ± 0.10 % ID/g | Intestines uptake [6, 7]: 0.48 ± 0.03 % ID/g | Kidney uptake [6, 7]: 120.93 ± 4.75 % ID/g | Liver uptake [6, 7]: 1.84 ± 0.07 % ID/g | Lung uptake [6, 7]: 0.84 ± 0.07 % ID/g | Muscle uptake [6, 7]: 0.47 ± 0.08 % ID/g | Pancreas uptake [6, 7]: 0.54 ± 0.07 % ID/g | Prostate uptake [6, 7]: 0.94 ± 0.30 % ID/g | Skin uptake [6, 7]: 1.42 ± 0.18 % ID/g | Spleen uptake [6, 7]: 1.20 ± 0.14 % ID/g | Stomach uptake [6, 7]: 0.33 ± 0.12 % ID/g | Tumor uptake [6, 7]: 1.42 ± 0.14 % ID/g | Blood uptake ([6]; 4 h p.i., i.v. ~1 nmol): 1.02 ± 0.29 % ID/g | Bone uptake ([6]; 4 h p.i., i.v. ~1 nmol): 1.44 ± 0.54 % ID/g | Heart uptake ([6]; 4 h p.i., i.v. ~1 nmol): 0.96 ± 0.22 % ID/g | Intestines uptake ([6]; 4 h p.i., i.v. ~1 nmol): 0.92 ± 0.58 % ID/g | Kidney uptake ([6]; 4 h p.i., i.v. ~1 nmol): 132.89 ± 11.12 % ID/g | Liver uptake ([6]; 4 h p.i., i.v. ~1 nmol): 2.41 ± 0.35 % ID/g | Lung uptake ([6]; 4 h p.i., i.v. ~1 nmol): 0.77 ± 0.52 % ID/g | Muscle uptake ([6]; 4 h p.i., i.v. ~1 nmol): 0.64 ± 0.30 % ID/g | Pancreas uptake ([6]; 4 h p.i., i.v. ~1 nmol): 0.66 ± 0.24 % ID/g | Prostate uptake ([6]; 4 h p.i., i.v. ~1 nmol): 1.27 ± 0.69 % ID/g | Skin uptake ([6]; 4 h p.i., i.v. ~1 nmol): 1.92 ± 0.49 % ID/g | Spleen uptake ([6]; 4 h p.i., i.v. ~1 nmol): 1.40 ± 0.20 % ID/g | Stomach uptake ([6]; 4 h p.i., i.v. ~1 nmol): 0.31 ± 0.08 % ID/g | Tumor uptake ([6]; 4 h p.i., i.v. ~1 nmol): 2.94 ± 0.36 % ID/g | Tumor-to-muscle (T/M) ratio ([6]; 24 h p.i.): 15 | Blood uptake ([6]; 24 h p.i., i.v. ~1 nmol): 0.09 ± 0.01 % ID/g | Bone uptake ([6]; 24 h p.i., i.v. ~1 nmol): 0.60 ± 0.04 % ID/g | Heart uptake ([6]; 24 h p.i., i.v. ~1 nmol): 0.21 ± 0.01 % ID/g | Intestines uptake ([6]; 24 h p.i., i.v. ~1 nmol): 0.19 ± 0.06 % ID/g | Kidney uptake ([6]; 24 h p.i., i.v. ~1 nmol): 26.86 ± 2.37 % ID/g | Liver uptake ([6]; 24 h p.i., i.v. ~1 nmol): 0.80 ± 0.04 % ID/g | Lung uptake ([6]; 24 h p.i., i.v. ~1 nmol): 0.28 ± 0.03 % ID/g | Muscle uptake ([6]; 24 h p.i., i.v. ~1 nmol): 0.15 ± 0.03 % ID/g | Pancreas uptake ([6]; 24 h p.i., i.v. ~1 nmol): 0.17 ± 0.00 % ID/g | Prostate uptake ([6]; 24 h p.i., i.v. ~1 nmol): 0.40 ± 0.10 % ID/g | Skin uptake ([6]; 24 h p.i., i.v. ~1 nmol): 0.77 ± 0.13 % ID/g | Spleen uptake ([6]; 24 h p.i., i.v. ~1 nmol): 0.58 ± 0.04 % ID/g | Stomach uptake ([6]; 24 h p.i., i.v. ~1 nmol): 0.11 ± 0.07 % ID/g | Tumor uptake ([6]; 24 h p.i., i.v. ~1 nmol): 1.57 ± 0.17 % ID/g | Tumor-to-muscle (T/M) ratio ([6]; at 1 and 4 h p.i.): 4–5
